Experimental data reported in US20210087593A1, “N-[…] ALKALOID COMPOUNDS” (Willow BioSciences Inc., priority 2017, published 2021).

How the values were obtained:
PsRNMT = assay: N-alkylation substrate screen using PsRNMT (LC-MS); format: biochemical, Papaver somniferum; parameters: key: −=no detectable quantities of product N-alkylated compound; Trace, +, ++, +++=increasing relative levels of product N-alkylated compound; Trace, +, ++, +++=increasing relative levels of product N-alkylated compound; Trace, +, ++, +++=increasing relative levels of product N-alkylated compound; Trace, +, ++, +++=increasing relative levels of product N-alkylated compound; conditions: 25 μg protein, 1 mM substrate, 1 mM SAM, 60 mM HEPES pH 8, 16 hours at 37° C.; relative level of N-alkylated product by LC-MS
Method: (§1) The GfCNMT, GfTNMT and PsRNMT coding sequences were amplified from Glaucium flavum (GfCNMT and GfTNMT) or Papaver somniferum (PsRNMT) cDNA using gene-specific primers containing attB recombination sites with Q5 HiFi DNA polymerase (NEB). Recombination reactions were carried out using BP and LR Clonase II (Thermo Scientific) to generate individual pDONR221 entry plasmids and, subsequently, individual pHGWA plasmids for heterologous expression of polyhistidine (HIS6)-tagged recombinant GfCNMT, GfTNMT and PsRNMT. Protein overexpression was carried out at 18° C. using E. coli ArcticExpress (Agilent) grown in Studier's autoinduction media.
(§2) Total soluble protein was extracted from each culture and the recombinant NMTs were purified using TALON cobalt affinity resin (Clontech) followed by desalting and concentration with Amicon Ultra-30 centrifugal filters (EMD Millipore). Protein concentration was determined using the Bradford method, and purity was assessed by SDS-PAGE followed by Coomassie staining.
(§3) Forty-four nitrogenous molecules were screened as potential substrates for EsNMT using a standardized assay (25 μg protein, 1 mM substrate, 1 mM SAM, 60 mM HEPES pH 8, 16 hours at 37° C.). In addition, a representative subset was screened as potential substrates for GfCNMT, GfTNMT and PsRNMT under identical conditions. For each substrate and enzyme combination, negative control assays were carried out using protein heated to 100° C. (boiled) for 20 minutes. Assays were quenched with 9 volumes of methanol, centrifuged to pellet insoluble debris and the supernatants were stored at −20° C. prior to analysis.
(§4) Assay supernatants were analyzed by liquid chromatography-mass spectrometry (LC-MS). LC-MS analysis was performed using a 1200 HPLC coupled with a 6410 triple-quadrupole MS (Agilent). Samples (2 μl) were injected onto a Luna […] Phenyl-Hexyl 100 Å HPLC column and analytes were eluted in a gradient of solvent A (0.1% Formic acid, 5% v/v methanol in water) and solvent B (0.1% Formic acid in methanol) at a flow rate of 300 μl per minute. The gradient began at 0% B, reached 35% B by 12 minutes, then increased to 85% B at 14 min and remained at that level until 18 minutes. Subsequently, the mixture returned to 0% B over a period of 3 minutes before a final 6 minute re-equilibration period. Analytes were applied to the mass analyzer using an electrospray ionization probe operating in positive mode with the following condition: capillary voltage, 4000V; fragmentor voltage, 100V, source temperature, 350° C.; nebulizer pressure, 50 PSI; gas flow 10 L/min. Ions were detected in full scan mode where quadrupoles 1 and 2 were set to RF only, whereas the third quadrupole scanned from 100-500 m/z over 525 milliseconds. Substrate acceptance by the enzymes was determined according to the formation of a peak with a 14-m/z increase in mass, corresponding to methylated substrate and a decrease in the substrate peak area, relative to the appropriate boiled control assay.
(§5) Each of the alkaloid substrates shown in Table 1 were incubated with the following N-alkyltransferases: GfCNMT (SEQ. ID NO: 3), gfTNMT (SEQ. ID NO: 4) and Ps RNMT ([…]) and EsNMT (SEQ. ID NO: 2), as described in Example 1. The presence of N-alkylated alkaloid product was detected as described in Examples 1-20. Legend: ND=Not Determined; −=no detectable quantities of product N-alkylated compound; and Trace, +, ++, +++=increasing relative levels of product N-alkylated compound.

GfCNMT = assay: N-alkylation substrate screen using GfCNMT (LC-MS); format: biochemical, Glaucium flavum; parameters: key: −=no detectable quantities of product N-alkylated compound; Trace, +, ++, +++=increasing relative levels of product N-alkylated compound; Trace, +, ++, +++=increasing relative levels of product N-alkylated compound; Trace, +, ++, +++=increasing relative levels of product N-alkylated compound; Trace, +, ++, +++=increasing relative levels of product N-alkylated compound; conditions: 25 μg protein, 1 mM substrate, 1 mM SAM, 60 mM HEPES pH 8, 16 hours at 37° C.; relative level of N-alkylated product by LC-MS
Method: as §1, §2, §3, §4, §5

EsNMT = assay: N-alkylation substrate screen using EsNMT (LC-MS); format: biochemical, Ephedra sinica; parameters: key to N-alkylation of substrate alkaloid compounds, Enzyme EsNMT: −=no detectable quantities of product N-alkylated compound; Trace, +, ++, +++=increasing relative levels of product N-alkylated compound; Trace, +, ++, +++=increasing relative levels of product N-alkylated compound; Trace, +, ++, +++=increasing relative levels of product N-alkylated compound; Trace, +, ++, +++=increasing relative levels of product N-alkylated compound; conditions: for N-alkylation of substrate alkaloid compounds, Enzyme EsNMT: 25 μg protein, 1 mM substrate, 1 mM SAM, 60 mM HEPES pH 8, 16 hours at 37° C., relative level of N-alkylated product by LC-MS; for N-alkylated alkaloid product detected after incubation with EsNMT (SEQ. ID NO: 2): incubated in accordance with Example 1, LC-MS
Method: The EsNMT coding sequence was amplified from Ephedra sinica cDNA using gene-specific primers containing restriction sites with Q5 HiFi DNA polymerase (NEB). Restriction digests and ligations (NEB) were carried out to generate a pQE plasmid (Qiagen) for heterologous expression of HIS6-tagged recombinant EsNMT. Protein overexpression was carried out at 18° C. in Escherichia coli SG13009 (Qiagen) grown in lysogeny broth (LB) to which 0.5 mM isopropyl β-D-1-thiogalactopyranoside (IPTG) was added.
as §2, §3, §4, §5

GfTNMT = assay: N-alkylation substrate screen using GfTNMT (LC-MS); format: biochemical, Glaucium flavum; parameters: key: −=no detectable quantities of product N-alkylated compound; Trace, +, ++, +++=increasing relative levels of product N-alkylated compound; Trace, +, ++, +++=increasing relative levels of product N-alkylated compound; Trace, +, ++, +++=increasing relative levels of product N-alkylated compound; Trace, +, ++, +++=increasing relative levels of product N-alkylated compound; conditions: 25 μg protein, 1 mM substrate, 1 mM SAM, 60 mM HEPES pH 8, 16 hours at 37° C.; relative level of N-alkylated product by LC-MS
Method: as §1, §2, §3, §4, §5

| SMILES | N-alkylation of substrate alkaloid compounds, Enzyme PsRNMT (PsRNMT) | N-alkylation of substrate alkaloid compounds, Enzyme GfCNMT (GfCNMT) | N-alkylation of substrate alkaloid compounds, Enzyme EsNMT (EsNMT) | N-alkylation of substrate alkaloid compounds, Enzyme GfTNMT (GfTNMT) | N-alkylated alkaloid product detected after incubation with EsNMT (SEQ. ID NO: 2) (EsNMT) |
| --- | --- | --- | --- | --- | --- |
| COc1cc(CCN)cc(OC)c1OC [Mescaline, mescaline] | − | − | + | − |  |
| COc1ccc2c(c1)[nH]c1c(C)nccc12 [Harmine, harmine] | − | ++ | − | − | No N-alkylated alkaloid product compounds were detected |
| COc1ccc(C[C@H]2c3cc(O)c(OC)cc3CCN2C)cc1O [S-Reticuline, reticuline] | +++ | + | + | ++ |  |
| COc1ccc2c(c1OC)C(=O)O[C@@H]2[C@H]1c2c(cc3c(c2OC)OCO3)CCN1C [Noscapine, noscapine, reference compound] | ++ | Trace | − | +++ | No N-alkylated alkaloid product compounds were detected |
| CC(N)Cc1ccccc1 (centres unmarked) [Amphetamine, amphetamine, reference compound] | − | Trace | + | Trace |  |
| NCCc1ccc(O)cc1 [Tyramine, tyramine] | − | + | + | − |  |
| COc1cc2c(cc1OC)CNCC2 [THQ2, 6,7-dimethoxy-1,2,3,4-tetrahydroisoquinoline] | + | +++ | +++ | + |  |
| c1cc2c(c3c1C[C@H]1c4cc5c(cc4CCN1C3)OCO5)OCO2 [Stylopine, stylopine] | +++ | + | + | + |  |
| NCCc1ccccc1 [2-Phenylethaneamine, 2-phenylethan-1-amine] | − | Trace | + | Trace |  |
| CC(N)C(O)c1ccccc1 (centres unmarked) [Norephedrine, norephedrine] | − | − | + | − |  |
| CC(C)NC[C@H](O)COc1cccc2ccccc12 (racemic) [Propanolol, propanolol, reference compound] | +++ | ++ | + | +++ |  |
| NC(=O)c1cccnc1 [Nicotinamide, nicotinamide] | − | − | − | − | No N-alkylated alkaloid product compounds were detected |
| COc1ccc2c3c([nH]c2c1)C(C)=NCC3 [Harmaline, harmaline] | − | + | + | − |  |
| NCCc1c[nH]c2ccccc12 [Tryptamine, tryptamine] | Trace | Trace | +++ | Trace |  |
